For one sequence, fragment found results are on record in paper PMC7391080 (2020).

Several values for one entry are separate records, joined by “and”; a condition that tells them apart may be missing. Equal values may be shown once.

The test system of this data set is Sap9. In words: 6 ng/μL Sap9 in 2 mM sodium phosphate buffer. The conditions noted are these: 37 °C, up to 3 h.

As to DSHAKRHHGYKRKFHEKHHSHRGY, the fragment found was 6–24, major and 7–24, major and 13–24, major and 14–24, major.
